The values below come from ChEMBL document CHEMBL1201862, “PubChem BioAssay data set” (2004).

Some test systems named below: ACHN; BT-549; CCRF-CEM; DU-145; EKVX; HOP-92; HT-29; K562; LOX IMVI; M14; MCF7; NCI/ADR-RES; SK-MEL-28; SK-OV-3; SNB-19; SNB-75; UACC-257.
Holding throughout (assay): growth of human tumour cells (NCI), 48 h

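Briefly, cells in 96-well plates were exposed to five compound concentrations for 48 h, and endpoints were estimated by linear interpolation. GI50 = concentration required for 50% inhibition of growth.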 Active and inactive are the calls of the source. Rule as the data show it: active = GI50 up to about 1.1 µM and inactive = higher.

As for `CN(C)CCCOc1nc2c(c(=O)n(C)c(=O)n2C)n1C.SC1=NC=NC2=NC=NC12`, the GI50 with ACHN is 6.84 µM (inactive); with BT-549, 11.3 µM (inactive); in the assay with CCRF-CEM it was 2.17 µM (inactive); in the assay with DU-145, 0.692 µM (active); with EKVX it was 33.7 µM (inactive); with HOP-92, > 100 µM (inactive). In addition, the GI50 is 5.2 µM (inactive) with HT-29; 1.14 µM (inactive) in the assay on K562; 0.303 µM (active) in the assay on LOX IMVI; 8.38 µM (inactive) in the assay with M14; 2.09 µM (inactive) in the assay with MCF7; 4.32 µM (inactive) in the assay with NCI/ADR-RES. Besides, the GI50 was 55.5 µM (inactive) in the assay on SK-MEL-28; 23.9 µM (inactive) in the assay on SK-OV-3; 88.5 µM (inactive) with SNB-19; 6.12 µM (inactive) in the assay with SNB-75; 6 µM (inactive) in the assay with UACC-257.
With `COC(=O)[C@@H]1C[C@@]2(C3C=CN(C(=O)C(F)(F)F)C=C3)c3ccccc3N(C(=O)C(F)(F)F)[C@H]2N1C(=O)OC`, the GI50 in the assay with ACHN is > 100 µM (inactive); with BT-549, 33.3 µM (inactive); in the assay with CCRF-CEM it was 31.7 µM (inactive); in the assay on DU-145, > 100 µM (inactive); with EKVX it was > 100 µM (inactive); in the assay on HOP-92, 34.1 µM (inactive). The GI50 is > 10 µM (inactive) in the assay with HT-29; 47.8 µM (inactive) in the assay with K562; 44.5 µM (inactive) in the assay on LOX IMVI; > 100 µM (inactive) in the assay with M14; 51.8 µM (inactive) in the assay on MCF7; > 100 µM (inactive) with NCI/ADR-RES. The GI50 is 39.1 µM (inactive) in the assay on SK-MEL-28; > 100 µM (inactive) in the assay on SK-OV-3; 71.6 µM (inactive) in the assay on SNB-19; 20.1 µM (inactive) in the assay on SNB-75; > 100 µM (inactive) in the assay on UACC-257.
With `c1ccc2c(c1)ccc1cc3cc(NCCCCNc4ccc5nc6c(ccc7ccccc76)cc5c4)ccc3nc12`, the GI50 was 1.39 µM (inactive) in the assay on ACHN; 2 µM (inactive) in the assay with BT-549; 0.427 µM (active) with CCRF-CEM; 1.29 µM (inactive) in the assay with DU-145; 2.03 µM (inactive) in the assay on EKVX; 1.58 µM (inactive) in the assay with HOP-92. Further, the GI50 in the assay with HT-29 was 2.61 µM (inactive); in the assay with K562 it was 1.63 µM (inactive); with LOX IMVI, 1.71 µM (inactive); in the assay on M14 it was 1.72 µM (inactive); in the assay with MCF7, 0.262 µM (active); in the assay on NCI/ADR-RES it was 2.11 µM (inactive). The GI50 with SK-MEL-28 is 2.1 µM (inactive); in the assay with SK-OV-3, 2.37 µM (inactive); in the assay on SNB-19, 0.352 µM (active); in the assay with SNB-75, 1.91 µM (inactive); in the assay on UACC-257 it was 1.72 µM (inactive).
In the case of `C[N+]1([O-])C2CCC1CC(OC(=O)C(CO)c1ccccc1)C2` (centres undefined), the GI50 with ACHN was > 100 µM (inactive); in the assay with BT-549, > 66.5 µM (inactive); in the assay with CCRF-CEM, > 100 µM (inactive); with DU-145 it was > 100 µM (inactive); with EKVX, > 100 µM (inactive); in the assay with HOP-92, > 63.2 µM (inactive). The GI50 with HT-29 is > 100 µM (inactive); in the assay with K562, > 100 µM (inactive); with LOX IMVI, > 100 µM (inactive); in the assay with M14, > 100 µM (inactive); with MCF7, > 100 µM (inactive); with NCI/ADR-RES, > 33.4 µM (inactive). In addition, the GI50 in the assay with SK-MEL-28, in the assay with SK-OV-3, in the assay with SNB-19, in the assay on SNB-75 and in the assay with UACC-257 was > 100 µM (inactive) throughout.
For the molecule `O=C(c1cc(Br)ccc1O)c1cc(Br)ccc1O`, the GI50 with ACHN was 16.4 µM (inactive); in the assay on BT-549 it was 17.8 µM (inactive); in the assay with CCRF-CEM, 22.5 µM (inactive); in the assay on DU-145 it was 15.8 µM (inactive); in the assay on EKVX it was 15.6 µM (inactive); with HOP-92, 13.6 µM (inactive). Also, the GI50 with HT-29 was 17.7 µM (inactive); in the assay with K562 it was 15.3 µM (inactive); in the assay on LOX IMVI, 18.2 µM (inactive); in the assay with M14, 15.7 µM (inactive); with MCF7, 16.8 µM (inactive); in the assay with NCI/ADR-RES, 18.8 µM (inactive). Moreover, the GI50 in the assay on SK-MEL-28 is 16.8 µM (inactive); with SK-OV-3, 19.4 µM (inactive); in the assay with SNB-19 it was 17.2 µM (inactive); in the assay with SNB-75, 16.4 µM (inactive); in the assay with UACC-257, 15.7 µM (inactive).
As for `COc1ccc(/C=N/n2c(-c3ccccc3)n[nH]c2=O)c(OC)c1`, the GI50 with ACHN was 29 µM (inactive); with BT-549, 4.41 µM (inactive); in the assay with CCRF-CEM, > 100 µM (inactive); with DU-145 it was > 100 µM (inactive); in the assay with EKVX, 38.5 µM (inactive); with HOP-92 it was 36.5 µM (inactive). For the same molecule, the GI50 with HT-29 is 26.6 µM (inactive); in the assay on K562 it was > 100 µM (inactive); in the assay on LOX IMVI, 47.4 µM (inactive); in the assay on M14, 98.2 µM (inactive); with MCF7, 49.4 µM (inactive); in the assay with NCI/ADR-RES, 29.2 µM (inactive). Also, the GI50 in the assay on SK-MEL-28 was > 100 µM (inactive); in the assay with SK-OV-3, 31.8 µM (inactive); in the assay on SNB-19, 1.13 µM (inactive); in the assay with SNB-75 it was 27 µM (inactive); in the assay on UACC-257 it was > 100 µM (inactive).
In the case of `Cc1cc2oc(=O)c(Cl)c(Cl)c2c(C)c1Cl`, the GI50 in the assay with ACHN is 11.2 µM (inactive); in the assay with BT-549, 7.26 µM (inactive); in the assay on CCRF-CEM it was 2.83 µM (inactive); in the assay with DU-145, 14.6 µM (inactive); in the assay with EKVX, 14.8 µM (inactive); in the assay on HOP-92, 1.58 µM (inactive). The GI50 in the assay with HT-29 was 4.78 µM (inactive); with K562 it was 1.95 µM (inactive); in the assay on LOX IMVI, 2.76 µM (inactive); with M14 it was 10.4 µM (inactive); with MCF7, 5.64 µM (inactive); in the assay with NCI/ADR-RES it was 5.5 µM (inactive). In addition, the GI50 in the assay on SK-MEL-28 was 15.4 µM (inactive); in the assay on SK-OV-3, 14.4 µM (inactive); in the assay with SNB-19, 11.8 µM (inactive); in the assay with SNB-75, 12.4 µM (inactive); with UACC-257 it was 15.1 µM (inactive).
`O=C1OCC(c2ccc(Cl)cc2)=C1Cl`: the GI50 with ACHN was 42.1 µM (inactive); in the assay on BT-549, 29.2 µM (inactive); with CCRF-CEM, 29.2 µM (inactive); in the assay with DU-145, 49.5 µM (inactive); in the assay on EKVX, 28.8 µM (inactive); in the assay on HOP-92 it was 31.9 µM (inactive). Further, the GI50 was 44.7 µM (inactive) with HT-29; 28.2 µM (inactive) in the assay on K562; 23.2 µM (inactive) in the assay on LOX IMVI; 18.8 µM (inactive) with M14; 17.5 µM (inactive) in the assay with MCF7; 26.9 µM (inactive) in the assay on NCI/ADR-RES. The GI50 with SK-MEL-28 is 49.9 µM (inactive); in the assay on SK-OV-3 it was > 100 µM (inactive); with SNB-19, > 100 µM (inactive); in the assay with SNB-75 it was > 100 µM (inactive); in the assay on UACC-257, 40 µM (inactive).
For the molecule `N[C@H](C(=O)O)[C@@H]1CC(Br)=NO1`, the GI50 is 8.22 µM (inactive) in the assay with ACHN; > 27 µM (inactive) with BT-549; 14.1 µM (inactive) with CCRF-CEM; 5.57 µM (inactive) with DU-145; 10.9 µM (inactive) with EKVX; > 29.4 µM (inactive) in the assay with HOP-92. In addition, the GI50 in the assay with HT-29 was 10.1 µM (inactive); with K562, 20.6 µM (inactive); in the assay with LOX IMVI, > 100 µM (inactive); in the assay with M14, 11.5 µM (inactive); with MCF7, 3.42 µM (inactive); in the assay with NCI/ADR-RES, 39.7 µM (inactive). In addition, the GI50 is 32.7 µM (inactive) in the assay with SK-MEL-28; 8.05 µM (inactive) with SK-OV-3; 36.4 µM (inactive) with SNB-19; 16.8 µM (inactive) with SNB-75; 54.2 µM (inactive) in the assay with UACC-257.
Regarding `O=C1Cc2c(-c3cccs3)cc(-c3ccccc3)nc2-c2ccccc2N1`, the GI50 in the assay with ACHN was 50.2 µM (inactive); in the assay with BT-549 it was > 100 µM (inactive); in the assay on CCRF-CEM, > 100 µM (inactive); in the assay with DU-145, > 100 µM (inactive); in the assay with EKVX it was 33.7 µM (inactive); in the assay with HOP-92, > 100 µM (inactive). Besides, the GI50 is 10.8 µM (inactive) in the assay on HT-29; > 100 µM (inactive) in the assay with K562; 36.5 µM (inactive) in the assay on LOX IMVI; 28.2 µM (inactive) in the assay with M14; 96.8 µM (inactive) in the assay with MCF7; 18.5 µM (inactive) with NCI/ADR-RES. Besides, the GI50 was > 100 µM (inactive) in the assay on SK-MEL-28; 24.4 µM (inactive) with SK-OV-3; 47.9 µM (inactive) in the assay on SNB-19; 0.0441 µM (active) in the assay with SNB-75; > 100 µM (inactive) in the assay with UACC-257.
Take `O=C(Cc1ccccc1)N/N=C(/CCN1CCCC1)CC(c1ccccc1)c1c(O)c2ccccc2oc1=O` (centres undefined): the GI50 is > 100 µM (inactive) in the assay on ACHN; 83.4 µM (inactive) with BT-549; 48.9 µM (inactive) in the assay with CCRF-CEM; > 100 µM (inactive) in the assay with DU-145; > 100 µM (inactive) in the assay on EKVX; 31.6 µM (inactive) with HOP-92. In addition, the GI50 in the assay with HT-29 is 75.9 µM (inactive); with K562, > 100 µM (inactive); in the assay on LOX IMVI, 17.3 µM (inactive); in the assay with M14, > 100 µM (inactive); with MCF7, 22 µM (inactive); in the assay with NCI/ADR-RES, 55.8 µM (inactive). For the same molecule, the GI50 in the assay on SK-MEL-28 is > 100 µM (inactive); in the assay with SK-OV-3 it was > 100 µM (inactive); with SNB-19, > 100 µM (inactive); in the assay on SNB-75 it was > 100 µM (inactive); with UACC-257 it was 37.2 µM (inactive).
Take `OC(O)(C(F)(F)F)C(F)(F)F`: the GI50 in the assay with ACHN, in the assay on BT-549, with CCRF-CEM, in the assay on DU-145, in the assay on EKVX and in the assay with HOP-92 was > 100 µM (inactive) each time. Further, the GI50 in the assay on HT-29, in the assay on K562, in the assay with LOX IMVI, in the assay on M14, in the assay on MCF7 and in the assay with NCI/ADR-RES was > 100 µM (inactive) each time. In addition, the GI50 in the assay with SK-MEL-28, in the assay with SK-OV-3, in the assay on SNB-19, with SNB-75 and in the assay with UACC-257 was > 100 µM (inactive) in each case.
